The test system of this test is T47-D cells. The experiment in a line: T47-D cell proliferation (cell counts) with control or TReP-132 siRNA and progesterone. Format: cell-based, human. The settings on record: T47-D transfected control cells, 30 nM progesterone, 4 to 6 days of treatment. As for the experimental part:
FIG. 3: Induction of TReP-132 by progesterone and suppression of progesterone inhibition of T47-D cell proliferation following TReP-132 knockdown by using small interfering RNA (“siRNA”). (T47-D cells were treated for the indicated times with 30 nM progesterone). Experiments were carried out in triplicate, and values represent the mean ±SD of a representative experiment.
FIG. 3B: Cells transfected with control siRNA or TReP-132 siRNA (400 ng) at 0 and 3 days were recovered at days 2, 4 or 6 and counted. (ns: not significant −*, p<0.05; **, […]; ***, p<0.001).
The sense 5′-[…]-3′ and the antisense 5′-[…]-3′ oligonucleotides were synthesized (Eurogentec) and used to generate double-stranded siRNA specific for TReP-132 (21 bp corresponding to amino acids 861-881 […] the initiation codon of the human TReP-132 gene). […] Transfection was carried out by using the GeneSilencer reagent (Gene Therapy Systems, San Diego, USA) as directed by the manufacturer. Transfection efficiency was verified by FACS analysis (Fluorescence-Activated Cell Sorting) (see below). […] Statistical analyses were carried out with the nonparametric Kruskal-Wallis test.

Turning to `CC(=O)[C@H]1CC[C@H]2[C@@H]3CCC4=CC(=O)CC[C@]4(C)[C@H]3CC[C@]12C` [progesterone, reference compound], the cell proliferation entry is “inhibited cell proliferation”.

(Values after patent publication US20080044436A1, “Method for Screening and Compositions for Treating Cancers” (priority 2004, published 2008).)
